Test results reported in article PMC9681730, “DeepPROTACs is a deep learning-based targeted degradation predictor for PROTACs” (Nature Communications, 2022).

What was measured:
[1] = target: T1, ERα-LBD (estrogen receptor, ER) (Homo sapiens, UniProt P03372); experiment: ITC (reverse titration, purified ERα-LBD); assay type: binding
T1 construct: gene ESR1; ERα-LBD (aa 298–554)
T1 sequence (P03372 298-554): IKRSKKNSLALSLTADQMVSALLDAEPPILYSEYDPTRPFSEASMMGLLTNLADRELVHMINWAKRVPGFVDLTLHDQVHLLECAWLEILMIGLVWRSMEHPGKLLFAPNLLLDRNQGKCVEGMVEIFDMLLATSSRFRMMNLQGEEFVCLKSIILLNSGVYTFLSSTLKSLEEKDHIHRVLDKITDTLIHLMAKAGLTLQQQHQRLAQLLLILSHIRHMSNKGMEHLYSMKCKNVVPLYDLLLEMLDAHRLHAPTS

VHL = target: T2, VHL (Homo sapiens, UniProt P40337); experiment: ITC (reverse titration, purified VCB complex); assay type: binding
T2 construct: VHL (aa 54-213) in His-tagged VCB complex with EloB (aa 1-104) and EloC (aa 1-112); with EloB and EloC (VCB complex)
T2 sequence (P40337 54-213): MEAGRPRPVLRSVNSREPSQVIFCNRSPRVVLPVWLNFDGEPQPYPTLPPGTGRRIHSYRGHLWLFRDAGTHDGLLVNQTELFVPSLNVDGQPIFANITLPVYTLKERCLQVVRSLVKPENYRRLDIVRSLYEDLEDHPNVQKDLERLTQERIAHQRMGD
T2 sequence (Q15370 1-104 partner): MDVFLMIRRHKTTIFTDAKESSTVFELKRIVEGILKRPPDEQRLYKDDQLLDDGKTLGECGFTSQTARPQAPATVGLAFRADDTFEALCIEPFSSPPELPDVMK
T2 sequence (Q15369 whole entry partner, the tested form may be a part): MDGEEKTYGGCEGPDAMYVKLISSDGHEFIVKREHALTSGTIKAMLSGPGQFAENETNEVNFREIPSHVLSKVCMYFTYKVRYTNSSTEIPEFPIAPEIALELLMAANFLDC

- Kd [1]: 2.14 µM
- Kd (VHL): 4.37 µM
SMILES: Cc1ncsc1-c1ccc(CNC(=O)[C@@H]2C[C@@H](O)CN2C(=O)[C@@H](NC(=O)CCCCCCCCCC(=O)NCCOc2ccc(C(=C(CCCl)c3ccccc3)c3ccc(O)cc3)cc2)C(C)(C)C)cc1 [PROTAC 8]
